From US20150150995A1, “CONJUGATED ANTI-MICROBIAL COMPOUNDS AND CONJUGATED ANTI-CANCER COMPOUNDS AND USES THEREOF” (PONO CORPORATION, priority 2012, published 2015)
Counter-ions that a name gives are not always drawn. Like-named read-outs stand apart in the source and are kept apart here.

Legend:
[1] = system: methicillin-resistant staphylococcus aureus (MRSA); assay: Minimum inhibitory concentration (MIC) test against MRSA; format: cell-based
Method: (§1) This complex can be easily compared to the cefazolin sodium salt by testing the minimum inhibitory concentration (MIC). Initial tests were performed against a drug resistant gram negative bacterium; carbapenem-resistant enterobacteriaceae (CRE) and a drug resistant gram positive bacterium; methicillin-resistant staphylococcus aureus (MRSA). […] By transforming the cefazolin sodium salt into a silver complex, it changes the antibiotic that CRE and MRSA are resistant to, to a compound that CRE and MRSA are susceptible to. Thus, in several embodiments, the compositions provided for herein lead to a heretofore unseen efficacy against drug-resistant microorganisms.

[2] = system: carbapenem-resistant enterobacteriaceae (CRE); assay: Minimum inhibitory concentration (MIC) test against CRE; format: cell-based; settings: drug resistant gram negative bacterium
Method: as §1

Cc1nnc(SCC2=C(C(=O)O)N3C(=O)[C@@H](NC(=O)Cn4cnnn4)[C@H]3SC2)s1 [cefazolin sodium salt, Cefazolin sodium salt]
MIC ([1]; Staphylococcus aureus): 256 µg/mL | MIC ([2]; read-out: MIC): > 256 µg/mL

cefazolin silver complex
MIC ([1]; drug resistant gram positive bacterium): 4 µg/mL | MIC [2]: 4 µg/mL
